PubChem BioAssay AID1963965 (Molecular Pharmacology Branch, DTP, NCI, 2024)
pIC50: −log10 of the molar value. Where “and” joins values, the source holds several entries; their conditions need not be identical. Equal entries are not always repeated. Values belong to the compound of their own block, whether it stands above or below them.

System: 996289-038-R-J1-PDC spheroid viability
Assay: Anticancer human tumor 996289-038-R-J1-PDC patient-derived colon adenocarcinoma cell line growth inhibition [PI3K]
Conditions: spheroids with HUVEC and MSC; for viability, T/C: stronger effect = lower value
Source text: Combinatorial screen of targeted agents with the PI3K inhibitors inavolisib, alpelisib, duvelisib, and copanlisib in multi-cell type tumor spheroids
A high-throughput screen of multi-cell type tumor spheroids was designed to identify active combinations of targeted small molecules and PI3K pathway inhibitors. Complex spheroids include a stromal component modeled by human endothelial cells (HUVEC) and fibroblasts modeled by human mesenchymal stem cells (MSCs). The concentration ranges selected for each drug and investigational agent were based upon clinically achievable concentrations if the clinical Cmax of the agent was known.
Compounds. The drugs and investigational agents: inavolisib (NSC800729), alpelisib (NSC765974), duvelisib (NSC772469), copanlisib (NSC816437), ipatasertib (NSC767898), afuresertib (NSC778305), talazoparib (NSC767125), sapanisertib (NSC764658), selumetinib (NSC741078), tovorafenib (DAY101, NSC766906), vemurafenib (NSC761431), ravoxertinib (NSC781343), sotorasib (NSC818433), MRTX1133 (NSC 836407), abemaciclib (NSC 768073), palbociclib (NSC758247), venetoclax (NSC 766270), SY5609 (NSC837396), enzalutamide (NSC755605), and darolutamide (NSC825331), were obtained from the National Cancer Institute (NCI) Developmental Therapeutics Program Chemical Repository. The FDA-approved anticancer drug set is available from the NCI Developmental Therapeutics Program. […] The stock solutions were prepared in dimethyl sulfoxide (DMSO, Sigma-Aldrich, St. Louis, MO, cat. D2650) at 800-fold the tested concentration and stored at -70 degrees C prior to their use. All drugs and investigational agents were tested over a range starting from a high concentration at or near the clinical Cmax and decreasing in half-log increments. If the clinical Cmax for an agent had not been determined, the highest concentration tested was 10 microM.
Cell Culture. All cells were maintained in an incubator at 37 degrees C and 5% CO2 with 95% humidity. The PDC lines were cultured according to standard operating procedures established by the NCI PDMR (https://pdmr.cancer.gov/sops/default.htm). All PDCs were thawed and cultured in Matrigel-coated flasks prepared with a working solution of 1X Ham's F-12 nutrient mix, without supplementation (Invitrogen, Waltham, MA, cat. 11765054), 100 U/mL penicillin-streptomycin (Invitrogen, cat. 15140122), and 2.5% Matrigel (Corning Inc., Corning, NY, cat. 354248) for the first three passages. The 354836-022-R-J1-PDC, 475296-252-R-J1-PDC, and 997726-040-R-J2-PDC lines were cultured in 6A media, which includes advanced DMEM/F-12 (Thermo Fisher Scientific, cat. 12634028), 10 mM HEPES (Thermo Fisher Scientific, cat. 15630080), 1X GlutaMAX supplement (Thermo Fisher Scientific, cat. 35050061), 0.1 mg/mL primocin (InvivoGen, San Diego, CA, cat. ant-pm-2), 10% defined fetal bovine serum, heat inactivated (HyClone Laboratories Inc., Logan, UT, cat. SH30070.03HI), 50% L-WRN conditioned media (ATCC, cat. CRL-3276), 1.25 mM N-Acetyl-L-cysteine (Sigma-Aldrich, cat. A9165), 10 mM nicotinamide (Sigma-Aldrich, cat. N0636), 1X B-27 supplement (Thermo Fisher Scientific, cat. 17504044), 1X N-2 supplement (Thermo Fisher Scientific, cat. 17502048), and 10 microM Y-27632 dihydrochloride (Tocris Bioscience, Bristol, United Kingdom, cat. 1254). The 624824-186-R-J2-PDC line was cultured in 6C/Colon 1B media, which includes all 6A media components plus 50 ng/mL human EGF recombinant protein (Thermo Fisher Scientific, cat. PHG0311). […]
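Also: spheroids exposed to compounds for seven days before viability read.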
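For viability, T/C in this document: luminescence used as a proxy for viable cell amount; percent viability relative to DMSO vehicle control as 100%.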

pIC50 (curve of first compound, second compound 0.0316 µM): 5.78 | pIC50 (curve of first compound, second compound 0.1 µM): 6.21 | pIC50 (curve of first compound, second compound 0.316 µM): 6.54 | pIC50 (curve of first compound, second compound 1 µM): 6.81 | pIC50 (curve of first compound, second compound 3.16 µM): 7.11 | pIC50 (curve of first compound, second compound 10 µM): > 7.50
SMILES: C#Cc1c(F)ccc2cc(O)cc(-c3ncc4c(N5CC6CCC(C5)N6)nc(OCC56CCCN5CC(F)C6)nc4c3F)c12 (stereo not drawn) + Cc1nc(NC(=O)N2CCCC2C(N)=O)sc1-c1ccnc(C(C)(C)C(F)(F)F)c1
viability, T/C (second compound 0.0316 µM, first compound 0.0316 µM): 80.9% | viability, T/C (second compound 0.0316 µM, first compound 0.1 µM): 77.1% | viability, T/C (second compound 0.0316 µM, first compound 0.316 µM): 66.6% | viability, T/C (second compound 0.0316 µM, first compound 1 µM): 53.9% | viability, T/C (second compound 0.0316 µM, first compound 3.16 µM): 45.4% | viability, T/C (second compound 0.0316 µM, first compound 10 µM): 40.2% | viability, T/C (second compound 0.1 µM, first compound 0.0316 µM): 94.4% | viability, T/C (second compound 0.1 µM, first compound 0.1 µM): 78.5% | viability, T/C (second compound 0.1 µM, first compound 0.316 µM): 55.6% | viability, T/C (second compound 0.1 µM, first compound 1 µM): 45.1% | viability, T/C (second compound 0.1 µM, first compound 3.16 µM): 39.6% | viability, T/C (second compound 0.1 µM, first compound 10 µM): 33.4% | viability, T/C (second compound 0.316 µM, first compound 0.0316 µM): 72.9% | viability, T/C (second compound 0.316 µM, first compound 0.1 µM): 55% | viability, T/C (second compound 0.316 µM, first compound 0.316 µM): 50.8% | viability, T/C (second compound 0.316 µM, first compound 1 µM): 40.1% | viability, T/C (second compound 0.316 µM, first compound 3.16 µM): 37.8% | viability, T/C (second compound 0.316 µM, first compound 10 µM): 27.8% | viability, T/C (second compound 1 µM, first compound 0.0316 µM): 65.5% | viability, T/C (second compound 1 µM, first compound 0.1 µM): 54.8% | viability, T/C (second compound 1 µM, first compound 0.316 µM): 42.6% | viability, T/C (second compound 1 µM, first compound 1 µM): 33.2% | viability, T/C (second compound 1 µM, first compound 3.16 µM): 27.8% | viability, T/C (second compound 1 µM, first compound 10 µM): 23.4% | viability, T/C (second compound 3.16 µM, first compound 0.0316 µM): 64% | viability, T/C (second compound 3.16 µM, first compound 0.1 µM): 47.2% | viability, T/C (second compound 3.16 µM, first compound 0.316 µM): 30.5% | viability, T/C (second compound 3.16 µM, first compound 1 µM): 26.8% | viability, T/C (second compound 3.16 µM, first compound 3.16 µM): 23.3% | viability, T/C (second compound 3.16 µM, first compound 10 µM): 16.9% | viability, T/C (second compound 10 µM, first compound 0.0316 µM): 37.6% | viability, T/C (second compound 10 µM, first compound 0.1 µM): 35.6% | viability, T/C (second compound 10 µM, first compound 0.316 µM): 22.2% | viability, T/C (second compound 10 µM, first compound 1 µM): 16.7% | viability, T/C (second compound 10 µM, first compound 3.16 µM): 14.5% | viability, T/C (second compound 10 µM, first compound 10 µM): 6.74%

pIC50 (curve of compound): < 5.00
SMILES: C[C@@H](NC(=O)c1ncnc(N)c1Cl)c1ncc(C(=O)Nc2cc(C(F)(F)F)c(Cl)cn2)s1
viability, T/C (compound 0.0316 µM): 110% [middle of 4 runs] | viability, T/C (compound 0.1 µM): 103% [middle of 4 runs] | viability, T/C (compound 0.316 µM): 110% (2×) and 119% and 115% | viability, T/C (compound 1 µM): 114% [middle of 4 runs] | viability, T/C (compound 10 µM): 131% [middle of 4 runs]
